The values that follow come from patent publication EP1577294A1, “S-SUBSTITUTED N-1- (HETERO)ARYL ALKYL-N - (HETERO)ARYL ALKYLYSOTHIOCARBAMIDES, METHOD FOR THE PRODUCTION THEREOF, PHYSIOLOGICALLY ACTIVE S-SUBSTITUTED N-1- (HETERO )ARYL ALKYL-N - (HETERO)ARYL ALKYLYSOTHIOCARBAMIDES,A PHARMACEUTICAL COMPOUND AND CURING METHOD” (Institut Fiziologicheski Aktivnykh Veschestv Rossiyskov …, priority 2002, dated 2004).

The subject of one experiment is AMPA/KA receptors. Briefly: Patch-clamp: potentiation of kainate-induced transmembrane currents in freshly isolated Purkinje neurons. The settings on record: for Potentiation of kainate-induced currents (%): Purkinje neurons of the rat cerebellum. The class given is cell-based, rat. The protocol:
(§1) The first was to determine the potentiating effect of new compounds on AMPA- and kainate-induced transmembrane currents in neurons of the Purkinje cerebellum of rats, and also blockade of NMDA-induced currents in the neurons of the cerebral cortex of rats;
(§2) Method for assessing properties of the compounds potentiating AMPA/KA-induced currents and blocking NMDA-induced currents.
The experiments were performed using the patch-clamp method on freshly-isolated Purkinje neurons taken from the cerebellum of rats (aged 14-16 days). A modified method was used for isolation. Slices of cerebellum 400-600 µm in thickness were placed in a thermostat-controlled chamber with a volume of 10 ml. The solution for isolation had the following composition (in mM): NaCl 150.0, KCl 5.0, CaCl2 2.0, MgSO4×7H2O 2.0, HEPES 10.0, glucose 15.0, pH 7.42. The slices were incubated in this solution for 60 minutes, after which this solution was replaced by a similar solution containing pronase (2 mg/ml) and collagenase (1 mg/ml) and incubation was continued for 70 minutes. After washing with the original solution for 20 minutes, the slices were placed in a Petri dish and dissociated mechanically with the aid of a Pasteur pipette. The solutions were continuously bubbled with 100% O2 at t° 34°C. The Purkinje neurons were placed in a working chamber with a volume of 0.6 ml. The working solution has the composition (in mM): NaCl 150.0, KCl 5.0, CaCl2 2.6, MgSO4×7H2O 2.0, HEPES 10.0, glucose 15.0, pH 7.36.
(§3) Transmembrane currents were induced by activation of AMPA/KA receptors by applying solutions of kainic acid, the agonist of these receptors, and by activation of NMDA receptors by applying solutions of N-methyl-D-aspartic acid (NMDA), the agonist of these receptors, using the rapid superfusion method. Currents were recorded with the aid of borosilicate microelectrodes (resistance 1.5-2.5 mohm) filled with the following composition (in mM): KCl 100.0, EGTA 11.0, CaCl2 1.0, MgCl2 1.0, HEPES 10.0, ATP 5.0, pH 7.2.
(§4) An EPC9 (HEKA, Germany) was used for recording. Currents were recorded on a Pentium-100 PC hard disc using the Pulse program, also purchased from the HEKA company. The results were processed with the aid of the Pulsefit program (HEKA).
The application of kainate induces inward transmembrane currents in the Purkinje neurons. Addition of the compounds to the perfusion solution elicits an increase in the amplitude of the currents. This increase depends on the compound, on its concentration, and on the time which has passed since the start of application of the substance.
In general terms: The patch-clamp technique gives a direct electrical read-out from membranes.

The subject of a further experiment is NMDA receptors. Briefly: Patch-clamp: blockade of NMDA-induced currents in cerebral cortex neurons. The class given is cell-based, rat. The settings on record: for Blockade of NMDA-induced currents (%): neurons of the cerebral cortex.
From the text: as §1, §2, §3, §4

Regarding `CSC(=NCc1ccccc1)NCc1ccccc1` [Compound 11, S-Methyl-N-benzyl-N'-benzylisothio-carbamide], the “Potentiation of kainate-induced currents (%)” value (“Potentiation … (%)” for short) in the experiment on AMPA/KA receptors (at 0.5-30 µM) stood at 0 at 0.5-30 µM %. Also, the “Blockade of NMDA-induced currents (%)” value in the experiment on NMDA receptors (at 0.5-30 µM) is 0 at 0.5-30 µM %.
Turning to `CCSC(=NCc1ccccc1)NCc1ccccc1.I` [Compound 12, S-Ethyl-N-benzyl-N'-benzylisothiocarbamide hydriodide], the “Potentiation … (%)” value in the experiment on AMPA/KA receptors (at 0.5-30 µM) came out at 0 at 0.5-30 µM %. The “Blockade of NMDA-induced currents (%)” value in the experiment on NMDA receptors (at 0.5-30 µM) was 0 at 0.5-30 µM %.
Take `c1ccc(CN=C(NCc2ccccc2)SCc2ccccc2)cc1` [Compound 13, S-Benzyl-N-benzyl-N'-benzylisothiocarbamide]: the “Potentiation … (%)” value in the experiment on AMPA/KA receptors (at 0.5-30 µM) stood at 0 at 0.5-30 µM %. In the experiment on NMDA receptors (at 0.5-30 µM), the “Blockade of NMDA-induced currents (%)” value is reported as 0 at 0.5-30 µM %.
`Cl.O=[N+]([O-])c1ccc(CSC(=NCc2ccccc2)NCc2ccccc2)cc1` [Compound 14, S-4-Nitrobenzyl-N-benzyl-N'-benzylisothiocarbamide hydrochloride]: in the experiment with AMPA/KA receptors (at 0.5-30 µM), the “Potentiation … (%)” value amounted to 0 at 0.5-30 µM %. The “Blockade of NMDA-induced currents (%)” value with NMDA receptors (at 0.5-30 µM) is reported as 0 at 0.5-30 µM %.
`Br.O=C(O)c1ccc(CSC(=NCc2ccccc2)NCc2ccccc2)cc1` [Compound 15, S-4-Carboxybenzyl-N-benzyl-N'-benzylisothiocarbamide hydrobromide]: the “Potentiation … (%)” value in the experiment on AMPA/KA receptors (at 0.5-30 µM) was found to be 0 at 0.5-30 µM %. In the experiment on NMDA receptors (at 0.5-30 µM), the “Blockade of NMDA-induced currents (%)” value worked out at 0 at 0.5-30 µM %.
Consider `Br.C=CCSC(=NCc1ccccc1)NCc1ccccc1` [Compound 16, S-Allyl-N-benzyl-N'-benzylisothiocarbamide hydrobromide], for which the “Potentiation … (%)” value in the experiment with AMPA/KA receptors (at 0.5-30 µM) was found to be 0 at 0.5-30 µM %. The “Blockade of NMDA-induced currents (%)” value in the experiment with NMDA receptors (at 0.5-30 µM) is recorded as 0 at 0.5-30 µM %.
For `Br.C1=CC(SC(=NCc2ccccc2)NCc2ccccc2)CCC1` (stereo not shown) [Compound 17, S-2-Cyclohexenyl-N-benzyl-N'-benzylisothiocarbamide hydrobromide], the “Potentiation … (%)” value is 0% at 10 µM in the experiment with AMPA/KA receptors (at 10 µM) and 60-100% at 0.5-1.0 µM in the experiment on AMPA/KA receptors (at 0.5-1.0 µM). Besides, the “Blockade of NMDA-induced currents (%)” value in the experiment with NMDA receptors (at 0.5 µM) was 30-50%; with NMDA receptors (at 2 µM), 100%.
For the compound `Br.c1ccc(CCSC(=NCc2ccccc2)NCc2ccccc2)cc1` [Compound 18, S-2-Phenylethyl-N-benzyl-N'-benzylisothiocarbamide hydrobromide], in the experiment on AMPA/KA receptors (20 µM, observed range (average given separately)), the “increase in kainate-induced currents” value is on record as 8-12%. The “Potentiation … (%)” value with AMPA/KA receptors (at 20 µM (average), hydrobromide) stood at 10% at 20 µM; in the experiment on AMPA/KA receptors (at 20 µM (average), listed as compound 18, hydrobromide), 10%. Besides, the “Washing out time that returns the amplitude of the responses to the control value” with AMPA/KA receptors (kainate-induced currents, after 20 µM) was in the range of 3 to 5 min. In the experiment with NMDA receptors (3 µM, observed range (average given separately)), the “decrease in the NMDA-induced currents” value was 25-35%. Moreover, the “Washing out time that returns the amplitude of the NMDA-induced currents to the control value” in the experiment on NMDA receptors (NMDA-induced currents, cerebral cortex neurons) lay within 3 to 6 min. Moreover, the “Blockade of NMDA-induced currents (%)” value in the experiment with NMDA receptors (at 3 µM (average), hydrobromide) is reported as 30% at 3 µM,; in the experiment on NMDA receptors (at 3 µM (average), listed as compound 18, hydrobromide) it was 30%; with NMDA receptors (at 10 µM, hydrobromide), 100% at 10 µM; in the experiment on NMDA receptors (at 10 µM, listed as compound 18, hydrobromide), 100%.
Consider `Br.CCOC(=O)CCSC(=NCc1ccccc1)NCc1ccccc1` [Compound 19, S-2-Ethoxycarbonyl-ethyl-N-benzyl-N'-benzylisothiocarbamide hydrobromide], for which the “Potentiation … (%)” value with AMPA/KA receptors (at 0.5-30 µM) came out at 0 at 0.5-30 µM %. Also, the “Blockade of NMDA-induced currents (%)” value in the experiment with NMDA receptors (at 0.5-30 µM) was 0 at 0.5-30 µM %.
Take `NS(=O)(=O)c1cc2c(cc1Cl)NC(C1CC3C=CC1C3)NS2(=O)=O` (stereo not shown) [Cyclothiazide, reference compound]: in the experiment on AMPA/KA receptors (at 1 µM), the “Potentiation … (%)” value is recorded as 20% at 1 µM. In addition, the “Blockade of NMDA-induced currents (%)” value in the experiment on NMDA receptors (at 1-30 µM) stood at 0 at 1-30 µM %.
Turning to `CC12CC3CC(C)(C1)CC(N)(C3)C2` [Memantine, reference compound], in the experiment on AMPA/KA receptors (at 30 µM), the “Potentiation … (%)” value amounted to 15% at 30 µM. In addition, the “Blockade of NMDA-induced currents (%)” value in the experiment with NMDA receptors (at 17 µM) stood at 50% at 17 µM.
As for `Nc1c2c(nc3ccccc13)CCCC2` [Tacrine, reference compound], in the experiment on AMPA/KA receptors (at 0.5-30 µM), the “Potentiation … (%)” value was determined as 0 at 0.5-30 µM %. Further, the “Blockade of NMDA-induced currents (%)” value with NMDA receptors (at 0.5-30 µM) amounted to 0 at 0.5-30 µM %.
